Assay results: US8580787B2, “Compositions and methods for reducing activation of alpha-1 receptors” (Eye Therapies LLC, priority 2008, dated 2013)

Legend:
[1] = brimonidine 0.01-[…] left eye vs tetrahydrozoline 0.05%, oxymetazoline […], naphazoline […] right eye; baseline redness 4/4
Source text: FIG. 4A is a baseline visual appearance of two eyes of a patient with an ocular condition.
In an average clinical situation, baseline redness is at 1-1.5/4.

[2] = Example 5: chronic red eyes, patient satisfaction assessment, eld brimonidine vs Naphcon-A; format: in vivo, human; details: brimonidine at […], drops twice a day for three to five weeks, seven patients, all patients
Procedure: The treatment was through drops twice a day for three to five weeks. At the end, patient satisfaction assessment was conducted.

[3] = FIGS. 5A-C: induction and reversal of rebound hyperemia in a patient's eyes; format: in vivo, human; details: brimonidine at […], right eye, after VISINE Original
Source text: FIG. 5A is a baseline visual appearance of two eyes of a patient with an ocular condition.

[4] = 0.03% brimonidine nasal spray, 0.9% saline vehicle, n of 1
[5] = Example 2: Lasik prophylaxis, postoperative hyperemia, hemorrhage and flap dislocation; details: brimonidine 0.02%

For `Brc1c(N=C2NCCN2)ccc2nccnc12.O=C(O)C(O)C(O)C(=O)O` [brimonidine, 5-bromo-6-(2-imidazolidinylideneamino)quinoxaline L-tartrate], the “scleral whitening brightening effects” value [1] was “significant scleral whitening brightening effects”, the patient-reported redness [2] was “reduced redness” and the “effect on VISINE Original induced rebound hyperemia” value [3] was “reversing the VISINE Original® induced rebound hyperemia”. For the same molecule, the “duration of complete relief of moderate nasal congestion per application” value [4] was 3 to 5 h, the “cosmetic appearance vs. no vasoconstrictor and vs. Naphcon-A” value ([5]; from day 1 after Lasik) was “much improved” and the “hyperemia in the majority of the 1+ or less hyperemic group” value ([5]; over 500 eyes) was “no or only trace hyperemia”.
